Measurements reported in patent publication US20250289785A1, “INDOLE DERIVATIVE, METHOD FOR PREPARING SAME, AND USE THEREOF” (MITOIMMUNE THERAPEUTICS INC., priority 2021, published 2025).

System: H9C2 cells
Test: Cell protection effect against t-BHP in heart cells (LDH release)
Assay type: cell-based
Conditions: H9C2, t-BHP 40 μM, 2 hours
Protocol: In order to identify the protective effect with regard to heart cells, H9C2 cells were divided into 96-well plates by 1.5×10^4, and cultured for 24 hours. The respective wells were treated with compounds of the examples 3× serial diluted to final concentrations of […], then cultured for 15 to 20 minutes. After treating with t-BHP with a final concentration of 40 μM, culturing was performed for 2 hours. In order to identify the protective effect of each compound, a Cytotoxicity LDH assay kit [Dojindo; CK12] was used to measure the degree of extracellular secretion of LDH. To describe briefly, at the time point 2-hour treatment of the cells with t-BHIP was completed, 100 μL each of the supernatant in which the cells were placed was collected and moved to a new 96-well plate. 100 μL/well of the assay buffer included in the kit (same amount as the sample) was added, followed by wrapping with foil and reacting for 30 minutes at room temperature. Observing the change in color of the sample, 50 μL/well of stop solution was added, then an iD3 spectrometer was used to measure absorbance at 490 nm and calculate the EC50 values. The EC50 of the compounds of the examples is preferably no more than 1.0 μM, and more preferably no more than 0.3 μM.

Structure (SMILES)	EC50
COCc1cc(NCC2CCOCC2)c2[nH]c(-c3ccccc3)cc2c1 [Example 3, 5-(methoxymethyl)-2-phenyl-N-(tetrahydropyran-4-ylmethyl)-1H-indol-7-amine]	≤ 300 nM
COCc1cc(NC2CCS(=O)(=O)CC2)c2[nH]c(-c3ccccc3)cc2c1 [Example 4, N-(1,1-dioxothian-4-yl)-5-(methoxymethyl)-2-phenyl-1H-indol-7-amine]	≤ 300 nM
COCc1cc(NC2CCN(S(C)(=O)=O)CC2)c2[nH]c(-c3ccccc3)cc2c1 [Example 5, 5-(methoxymethyl)-N-(1-methylsulfonyl-4-piperidyl)-2-phenyl-1H-indol-7-amine]	≤ 300 nM
COCc1cc(NC2CCN(C(C)=O)CC2)c2[nH]c(-c3ccccc3)cc2c1 [Example 6, 1-[4-[[5-(methoxymethyl)-2-phenyl-1H-indol-7-yl]amino]-1-piperidyl]ethanone]	≤ 300 nM
COCc1cc(NC2CCC(F)(F)CC2)c2[nH]c(-c3ccccc3)cc2c1 [Example 7, N-(4,4-difluorocyclohexyl)-5-(methoxymethyl)-2-phenyl-1H-indol-7-amine]	≤ 300 nM
COCc1cc(NCc2ccccc2)c2[nH]c(-c3ccccc3)cc2c1 [Example 8, N-benzyl-5-(methoxymethyl)-2-phenyl-1H-indol-7-amine]	≤ 300 nM
COCc1cc(NC2CCN(C(=O)OC(C)(C)C)CC2)c2[nH]c(-c3ccccc3)cc2c1 [Example 9, tert-butyl 4-[[5-(methoxymethyl)-2-phenyl-1H-indol-7-yl]amino]-piperidine-1-carboxylate]	≤ 300 nM
COCc1cc(NC(C)C)c2[nH]c(-c3ccccc3)cc2c1 [Example 10, N-isopropyl-5-(methoxymethyl)-2-phenyl-1H-indol-7-amine]	≤ 300 nM
COCc1cc(NC2CCN(C)CC2)c2[nH]c(-c3ccccc3)cc2c1 [Example 11, 5-(methoxymethyl)-N-(1-methyl-4-piperidyl)-2-phenyl-1H-indol-7-amine]	≤ 300 nM
COCCNc1cc(COC)cc2cc(-c3ccccc3)[nH]c12 [Example 12, N-(2-methoxyethyl)-5-(methoxymethyl)-2-phenyl-1H-indol-7-amine]	≤ 300 nM
COCCCNc1cc(COC)cc2cc(-c3ccccc3)[nH]c12 [Example 13, 5-(methoxymethyl)-N-(3-methoxypropyl)-2-phenyl-1H-indol-7-amine]	≤ 300 nM
CC(C)(C)OCc1cc(NC2CCOCC2)c2[nH]c(-c3ccccc3)cc2c1 [Example 15, 5-(tert-butoxymethyl)-2-phenyl-N-tetrahydropyran-4-yl-1H-indol-7-amine]	≤ 300 nM
CC(C)(C)OCc1cc(NC2CCCC2)c2[nH]c(-c3ccccc3)cc2c1 [Example 16, 5-(tert-butoxymethyl)-N-cyclopentyl-2-phenyl-1H-indol-7-amine]	≤ 300 nM
CC(C)(C)OCc1cc(N(C2CCCC2)C2CCCC2)c2[nH]c(-c3ccccc3)cc2c1 [Example 17, 5-(tert-butoxymethyl)-N,N-dicyclopentyl-2-phenyl-1H-indol-7-amine]	≤ 300 nM
COCc1cc(NC2CCOCC2)c2[nH]cc(-c3ccccc3)c2c1 [Example 18, 5-(methoxymethyl)-3-phenyl-N-tetrahydropyran-4-yl-1H-indol-7-amine]	≤ 300 nM
CCOCc1cc(NC2CCOCC2)c2[nH]c(-c3ccccc3)cc2c1 [Example 20, 5-(ethoxymethyl)-2-phenyl-N-(tetrahydro-2H-pyran-4-yl)-1H-indol-7-amine]	≤ 300 nM

Structure (SMILES)	EC50
CC(C)OCc1cc(NC2CCCC2)c2[nH]c(-c3ccccc3)cc2c1 [Example 21, N-cyclopentyl-5-(isopropoxymethyl)-2-phenyl-1H-indol-7-amine]	≤ 300 nM
CC(C)OCc1cc(NC2CCOCC2)c2[nH]c(-c3ccccc3)cc2c1 [Example 22, 5-(isopropoxymethyl)-2-phenyl-N-(tetrahydro-2H-pyran-4-yl)-1H-indol-7-amine]	≤ 300 nM
CCOCc1cc(NC2CCCC2)c2[nH]c(-c3ccccc3)c(C#N)c2c1 [Example 23, 7-(cyclopentylamino)-5-(ethoxymethyl)-2-phenyl-1H-indole-3-carbonitrile]	≤ 300 nM
CCOCc1cc(NC2CCOCC2)c2[nH]c(-c3ccccc3)c(C#N)c2c1 [Example 24, 5-(ethoxymethyl)-2-phenyl-7-((tetrahydro-2H-pyran-4-yl)amino)-1H-indole-3-carbonitrile]	300 to 1000 nM
CCOCc1cc(NC2CCCC2)c2[nH]c(-c3ccccc3)c(/C=N/OC)c2c1 [Example 25, (E)-7-(cyclopentylamino)-5-(ethoxymethyl)-2-phenyl-1H-indole-3-carbaldehyde O-methyl oxime]	≤ 300 nM
CCOCc1cc(N(C2CCOCC2)C2CCOCC2)c2[nH]c(-c3ccccc3)c(/C=N/OC)c2c1 [Example 26, (E)-7-(bis(tetrahydro-2H-pyran-4-yl)amino)-5-(ethoxymethyl)-2-phenyl-1H-indole-3-carbaldehyde O-methyl Oxime]	> 1000 nM
CCOCc1cc(NC2CCOCC2)c2[nH]c(-c3ccccc3)c(/C=N/OC)c2c1 [Example 27]	≤ 300 nM
CCOCc1cc(NC2CCCC2)c2c(c1)c(COC)c(-c1ccccc1)n2C [Example 28, N-cyclopentyl-5-(ethoxymethyl)-3-(methoxymethyl)-1-methyl-2-phenyl-1H-indol-7-amine]	300 to 1000 nM
CCOCc1cc(NC2CCCC2)c2[nH]c(-c3ccccc3)c(/C=C/C(=O)OC)c2c1 [Example 30, methyl (E)-3-(7-(cyclopentylamino)-5-(ethoxymethyl)-2-phenyl-1H-indol-3-yl)acrylate]	≤ 300 nM
CCOCc1cc(NC2CCOCC2)c2[nH]c(-c3ccccc3)c(/C=C/C(=O)OC)c2c1 [Example 31, Methyl (E)-3-(5-(ethoxymethyl)-2-phenyl-7-((tetrahydro-2H-pyran-4-yl)amino)-1H-indole-3-yl)acrylate]	≤ 300 nM
CCOCc1cc(NC2CCCC2)c2[nH]c(-c3ccccc3)c(C(=O)C(F)(F)F)c2c1 [Example 32, 1-(7-(cyclopentylamino)-5-(ethoxymethyl)-2-phenyl-1H-indol-3-yl)-2,2,2-trifluoroethan-1-one]	≤ 300 nM
CCOCc1cc(NC2CCOCC2)c2[nH]c(-c3ccccc3)c(C(=O)C(F)(F)F)c2c1 [Example 33, 1-(5-(ethoxymethyl)-2-phenyl-7-((tetrahydro-2H-pyran-4-yl)amino)-1H-indol-3-yl)-2,2,2-trifluoro-1-one]	300 to 1000 nM
CCOCc1cc(NC2CCCC2)c2[nH]c(-c3ccccc3)c(/C=C/C(=O)c3ccccc3)c2c1 [Example 34, (E)-3-(7-(cyclopentylamino)-5-(ethoxymethyl)-2-phenyl-1H-indol-3-yl)-1-phenylpropan-2-ene-1-one]	≤ 300 nM
CCOCc1cc(NC2CCOCC2)c2[nH]c(-c3ccccc3)c(/C=C/C(=O)c3ccccc3)c2c1 [Example 35, (E)-3-(5-(ethoxymethyl)-2-phenyl-7-((tetrahydro-2H-pyran-4-yl)amino)-1H-indol-3-yl)-1-phenylpropan-2-en-1-one]	≤ 300 nM
CCOCc1cc(NC2CCCC2)c2[nH]c(-c3ccccc3)c(C(O)C(F)(F)F)c2c1 (stereo not shown) [Example 36, 1-(7-(cyclopentylamino)-5-(ethoxymethyl)-2-phenyl-1H-indol-3-yl)-2,2,2-trifluoroethan-1-ol]	≤ 300 nM
